“Also recorded” adds a separate entry of the source.
Key:
[1] = system: porcine eye; experiment: Dye injected into the lenticular plain after Small Incision Lenticule Extraction (SMILE) in a porcine eye; conditions: injected along the laser incision planes
From the text: FIG. 9A is an operating microscope view of a porcine eye upon which a Small Incision Lenticule Extraction procedure (SMILE) has been carried out. From this view, circular horizontal plains have been cut in the corneal stroma, a superficial smaller diameter cut and a deeper cut of larger diameter. The cuts join in the corneal periphery, thereby creating a lenticule. The arrows show the edge of these cuts.
FIG. 9B is an operating microscope view of a porcine eye upon which a Small Incision Lenticule Extraction procedure (SMILE) has been carried out. Indigo Carmine has been injected into the lenticular plain. The white arrows indicate the complete circular edge of the lenticule.
Minimally invasive corneal procedures for correcting refractive error (see, e.g., Titiyal, J. S., et al., “Learning Curve of Small Incision Lenticule Extraction: Challenges and Complications”, Cornea, 2017, 36:1377-1382) have also been developed in recent years. For example, in Small Incision Lenticule Extraction (SMILE), a lenticule of corneal stroma is created within the stroma using a laser and then removed through a small incision. Occasionally, the cuts that create the lenticule are discontinuous, making lenticule extraction difficult. […]

[2] = reduced state, fluorescent; cited from earlier work
[3] = system: eye bank eyes; experiment: Dye solution instilled by injection into the anterior chamber of eye bank eyes, viewed by naked eye / operating microscope; parameters: species or system human; conditions: for egress of dye from the eye into outflow vessels after injection into the anterior chamber: eye bank eyes, Indigo Carmine 0.004, 0.04, 0.4 wt. %, other ophthalmic dyes for comparison
From the text: After an incision is made into the anterior chamber of the eye, a small amount of aqueous humor is expressed and the dye solution is instilled by injection into the anterior chamber. The dye solution is typically left in place for 30 seconds, during which time it stains the anterior capsule of the lens. Excess dye solution is then expelled, usually using a viscoelastic device or flushed out with a balanced salt solution.
Dye solutions containing 0.004 wt. %, 0.04 wt. %, and 0.4 wt. % of Indigo Carmine (prepared by serial dilutions of a 0.4 wt. % Indigo Carmine solution provided by Micro-Tech (Nanjing) Co.) were instilled by injection into the anterior chamber of seven eye bank eyes following the dye solution instillation procedure detailed above.
Special imaging techniques were not required.

[4] = cited from earlier work
[5] = system: protein; conditions: sodium salt; cited from earlier work
[6] = system: ocular surface squamous neoplastic lesion; experiment: Topical application of dye to a human eye, slit lamp view of ocular surface squamous neoplastic lesion; type: in vivo
From the text: FIG. 8 is a slit lamp view of a human eye wherein an ocular surface squamous neoplastic lesion is delineated after topical application of Indigo Carmine. A blue outline is seen around the perimeter of the white ocular surface squamous neoplastic lesion.
In certain embodiments, the dye delineates eye surface dysplasia and malignancy (ocular surface squamous neoplasia) as has been found in the gut (see, e.g., Oyama, T., “Diagnostic strategies of superficial Barrett's esophageal cancer for endoscopic submucosal dissection”, Dig. Endosc., 2013, 25 Suppl 1:7-12) (see FIG. 7)

[7] = system: anterior capsule; conditions: cited from earlier work
[8] = system: ocular structures; conditions: cited from earlier work
[9] = anterior chamber perfused with dye solution, sodium salt

Compound: O=C1C(=C2Nc3ccc(S(=O)(=O)[O-])cc3C2=O)Nc2ccc(S(=O)(=O)[O-])cc21.[Na+].[Na+] [Indigo Carmine, 5,5′-indigodisulfonic acid sodium salt]
- identification of laser incision planes and lenticule edge [1]: possible to identify and determine the extent of these incisions
- absorption maximum [2]: 436 nm
- emission maximum [2]: 528 nm
- staining of the canal of Schlemm [3, 9]: heavily; also recorded: heavy staining
- staining of the trabecular meshwork [3, 9]: lightly; also recorded: more lightly stained
- visibility of dye in the collector channels on the surface of the eye ([3]; at each concentration: 0.004, 0.04 and 0.4 wt. %): visible to the naked eye of the surgeon as it appeared in the collector channels on the surface of the eye
- staining of the anterior capsule of the lens ([3]; capsulorhexis procedure, eye bank eye): lightly stained
- dye in the deep scleral plexus ([3]; conjunctiva reflected away, sodium salt): observed in the deep scleral plexus; also recorded: deeper vessels are seen, evidence of the deep scleral plexus
- egress of dye from the eye into outflow vessels after injection into the anterior chamber ([3]; sodium salt): appeared in the fine vessels in the conjunctiva adjacent to the limbus, the aqueous veins and the conjunctival venous system; also recorded: some of the dye exiting the eye through the aqueous veins
- visibility of dye on the surface of the instilled eye ([3]; no special imaging): easily visible to the naked eye of the surgeon
- solubility in water [4]: soluble in water
- protein binding [5]: low protein binding; also recorded: relatively reduced
- delineation of ocular surface squamous neoplastic lesion [6]: delineated

Compound: CC1(C)C(/C=C/C=C/C=C/C=C2\N(CCCCS(=O)(=O)O)c3ccc4ccccc4c3C2(C)C)=[N+](CCCCS(=O)(=O)[O-])c2ccc3ccccc3c21 [Indocyanine Green]
- egress of dye from the eye into outflow vessels after injection into the anterior chamber [3]: appears to remain within the eye

Compound: CCN(CC)c1ccc(C(=C2C=CC(=[N+](CC)CC)C=C2)c2cc(O)c(S(=O)(=O)O)cc2S(=O)(=O)O)cc1 [Patent Blue]
- egress of dye from the eye into outflow vessels after injection into the anterior chamber [3]: appears to remain within the eye

Compound: Cc1cc(-c2ccc(/N=N/c3c(S(=O)(=O)O)cc4cc(S(=O)(=O)O)cc(N)c4c3O)c(C)c2)ccc1/N=N/c1c(S(=O)(=O)O)cc2cc(S(=O)(=O)O)cc(N)c2c1O [Trypan Blue]
- lowest concentration at which staining can occur [7]: 0.0125 wt. %
- staining of the trabecular meshwork ([3]; anterior chamber perfused with dye solution): particularly enhances trabecular meshwork staining
- egress of dye from the eye into outflow vessels after injection into the anterior chamber [3]: appears to remain within the eye
- identifying and visualizing anterior lens capsule and trabecular meshwork [8]: effective
- identifying or visualizing the canal of Schlemm [8]: not effective

Compound: Brilliant Blue
- egress of dye from the eye into outflow vessels after injection into the anterior chamber [3]: appears to remain within the eye

Source: patent publication US20220151827A1, “Ophthalmic Compositions, and Ocular Uses Thereof, of Indigo Carmine” (priority 2019, published 2022)
